target: T1, human ETA receptor (Homo sapiens, UniProt P25101); assay: ETA receptor binding assay with FIDA analysis; conditions: 1 μM non-labelled ligand; 2 nM TAMRA-labeled endothelin-1; membrane vesicles from CHO cells or VLPs from Sf9 cells; 30 minutes at room temperature
T1 construct: Flag; made in house; host or cells: Sf9 insect cells co-infected with recombinant baculoviruses; VLPs pelleted from the culture supernatant
T1 sequence (P25101 21-427): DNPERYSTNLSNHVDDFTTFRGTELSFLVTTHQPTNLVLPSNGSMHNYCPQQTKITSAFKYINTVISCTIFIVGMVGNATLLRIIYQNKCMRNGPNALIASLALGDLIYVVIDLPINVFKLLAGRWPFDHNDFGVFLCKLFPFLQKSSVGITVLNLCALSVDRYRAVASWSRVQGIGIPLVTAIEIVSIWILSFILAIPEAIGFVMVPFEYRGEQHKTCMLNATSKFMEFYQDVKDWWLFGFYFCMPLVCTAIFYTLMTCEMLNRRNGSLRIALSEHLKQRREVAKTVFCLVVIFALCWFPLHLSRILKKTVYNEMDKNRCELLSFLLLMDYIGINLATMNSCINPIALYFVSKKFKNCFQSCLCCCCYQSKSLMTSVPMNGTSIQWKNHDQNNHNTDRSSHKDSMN
Method: After 30 minutes incubation at room temperature the mixture was analysed by FIDA using a beam scanner and 543 nm laser light for excitation.

competition with TAMRA-labeled endothelin-1 for binding to the ETA receptor | Compound
non-competing ligand | big endothelin-1
competing ligand | endothelin-1

Compound | competition with TAMRA-labeled endothelin-1 for binding to the ETA receptor
C[C@H](N)C(=O)NCC(=O)N[C@H]1CSSC[C@@H](C(=O)O)NC(=O)[C@H](CO)NC(=O)[C@H]([C@@H](C)O)NC(=O)[C@H](Cc2ccccc2)NC(=O)[C@H]([C@@H](C)O)NC(=O)[C@H](CCCCN)NC(=O)[C@H](Cc2c[nH]c3ccccc23)NC(=O)[C@H](Cc2ccccc2)NC(=O)[C@H](Cc2ccccc2)NC(=O)[C@H](CC(N)=O)NC(=O)[C@H](CCCCN)NC1=O [somatostatin-14] | non-competing ligand

Source: patent US7476517B2, “Virus like particles, their preparation and their use preferably in pharmaceutical screening and functional genomics” (Evotec AG, priority 1999, dated 2009)
